Measurements: patent US8664276B2, “Stilbene analogs and methods of treating cancer” (University of Kentucky Research Foundation, priority 2011, dated 2014)
Entries after “also recorded” stand apart in the source; their conditions may differ.

What was measured:
[1] = system: Wnt target genes, Axin2 and c-Myc; experiment: Western blot of Wnt target proteins in LS174 CRC cells; type: cell-based
Experimental: Western blot. Western blots were performed using the following antibodies: β-catenin (Sigma, C2206), c-Myc (Epitomics, 1472-1), Axin2 (Cell Signaling, 2151), β-Actin (Sigma, A1978), TCF4 (Epitomics, 2114-1) and pygopus2 (Santa Cruz, sc-74878), Cyclin D1 (Cell signaling, 2926).
(§1) Cyclin B1 levels were decreased, whereas p21^WAF1/CIP1 levels increased, consistent with the fact that p21^WAF1/CIP1 expression is repressed by c-Myc. β-catenin levels were not affected by resveratrol. Next, the mRNA levels of β-catenin target genes were analyzed using RT-PCR. Expression of survivin, Lgr5, CD44, and c-Myc were decreased in resveratrol-treated cells.
A panel of stilbene analogs was designed and synthesized (FIGS. 2, 3, 5A and 6A). […] However, the solubility of 4d was poor and it was not effective below 10 μM concentrations (data not shown). To improve its solubility and activity, compound 4d was modified with 2′-fluoro 4e, 3′-fluoro 4f and 4′-fluoro 4g substituents (FIG. 5D). Both compounds 4e and 4f had good activity at 10 μM, (E)-4-(2-fluorostyryl)-N,N-dimethylaniline.
Western blot and cell proliferation assay. The activity of fluorinated N,N-dialkylaminostilbenes (FIDAS or FIDAS agents) on Wnt signaling activity in cancer cells were analyzed by Western blot with antibodies against Wnt target genes, such as c-Myc, Axin2. The effects of FlDAS agents on cancer cell growth were analyzed using Cell Viability Analyzer (Beckman Coulter, Vi-Cell XR). These assays have been described previously (see Zhang et al., J. of Med. Chem. 54, 1288-1297 (2011)).

[2] = system: β-catenin target genes; experiment: RT-PCR of β-catenin target genes in LS174 cells; type: cell-based; conditions: RT-PCR
Experimental: RT-PCR. LS174 cells were treated with DMSO or Wnt inhibitors. After 36 h, RNA was isolated using the RNeasy kit (Qiagen). RT-PCR was performed as described in Zhang et al., Mol Cell Biol 2006, 26, 2055-2064. The following primers were used: β-actin: 5′-CAACCGCGAGAAGATGAC-3′ (SEQ ID NO:01), 5′-AGGAAGGCTGGAAGAGTG-3′ (SEQ ID NO:02); surivivin: 5′-[…]-3′ (SEQ ID NO:03), 5′-[…]-3′ (SEQ ID NO:04); c-Myc: 5′-TGGGCTGTGAGGAGGTTTG-3′ (SEQ ID NO:05), 5′-TATGTGGAGCGGCTTCTCG-3′ (SEQ ID NO:06); Axin2: 5′-[…]-3′ (SEQ ID NO:07), 5′-[…]-3′ (SEQ ID NO:08); TCF4: 5′-[…]-3′ (SEQ ID NO:09), 5′-[…]-3′ (SEQ ID NO:10); pygopus2: 5′-GGCCGGTCTGCAAATGAAG-3′ (SEQ ID NO:11), 5′-TCCACCTCCAGTGCTGTAG-3′ (SEQ ID NO:12); Lgr5: 5′-[…]-3′ (SEQ ID NO:13), 5′-[…]-3′ (SEQ ID NO:14); CD44: 5′-[…]-3′ (SEQ ID NO:15), 5′-[…]-3′ (SEQ ID NO:16); Ki67: 5′-[…]-3′ (SEQ ID NO:17), 5′-[…]-3′ (SEQ ID NO:18).
as §1

[3] = target: MAT2A (Homo sapiens, UniProt P31153); experiment: Cell based SAM and SAH analysis in LS174 colon cancer cells (LC-MS/MS); design: endogenous in cells; host or cells: LS174T; conditions: 10 μM of 4r versus 30 μM of resveratrol
Experimental: SAM and SAH analysis by LC-MS/MS. The LC-MS/MS system consisted of two Varian ProStar 210 LC Pumps coupled with a Varian 1200L triple quadrupole mass spectrometer. The separation was performed on a Hypercarb column (50 mm×2.1 mm, […], Thermo Scientific #35003-052130). Gradient elution started with 98% solution A (0.1% formic acid in water), followed by an increase to 38% solution B (0.1% formic acid in acetonitrile) in 8 min. The column was than flushed with 90% B for 5 min and regenerated with 98% A for another 8 min. The flow rate was 0.25 mL/min. Between the 3rd and 11th min, the eluent was switched to the ion source of the mass spectrometer. The precursor product transitions for SAM (m/z 399→250), SAH (m/z 385→250) and [d-4]-SAH (m/z 389→136) were monitored. The optimized ion source parameters were: Capillary Voltage: 32 V for both SAM and SAH, Collision energy: 9 V and 7V for SAM and SAH, respectively, Needle voltage: 5000 V and the Shield voltage: 600V. Nitrogen was used as the drying gas at a temperature of 300° C. and the interface heater was set to 50° C. The drying gas and nebulizing gas were set to 20 and 50 psi, respectively.
Cell based SAM analysis. […] 5 ul of supernatants were analyzed by LC-MS/MS using a modified method based on a previous publication (see Krijt et al., J Chromatogr B Analyt Technol Biomed Life Sci 877, 2061-6, (2009)). […]

CN(C)c1ccc(/C=C/c2c(F)cccc2F)cc1 [4r, (E)-4-(2,6-Difluorostyryl)-N,N-dimethylaniline]
repression of Wnt target genes at 10 μM ([1]; 10 μM, CRC cells): repress Wnt target genes; also recorded: reduced the protein levels
Wnt inhibitory activity in Western blot, qualitative or relative to a comparator ([1]; CRC cells): more active than compound 4e; also recorded: best activity
protein levels of TCF4 and pygopus2 ([1]; CRC cells): reduced
inhibition of Wnt target genes at 2.5 μM ([1]; LS174 CRC cells, 2.5 μM): significantly inhibited
transcription of TCF4 genes [2]: inhibited
transcription of Wnt target genes [2]: strongly inhibited
transcription of pygopus2 genes [2]: no significant effects
MAT2A activity (SAM levels) in LS174 cells versus resveratrol [3]: more significantly than 30 μM of resveratrol
